Laboratory results taken from publication PMC7822874, “Chemoprotective antimalarials identified through quantitative high-throughput screening of Plasmodium blood and liver stage parasites” (Scientific Reports, 2021).
Where two headings read alike, the source gives them in different places.

Assays:
[1] = test system: P. falciparum Dd2 (clone B2) asexual blood stage parasites; experiment: P. falciparum Dd2 asexual blood stage SYBR Green-I 72 h proliferation assay (qHTS); type: cell-based, Plasmodium falciparum; details: averaged P. falciparum asexual blood stage potency, log10 of AC50 in M
HepG2-A16-CD81EGFP cells = details: averaged response (percent)
in vitro = details: human, hepg2-a16-cd81egfp cells, % viability
[2] = test system: P. berghei-ANKA-GFP-LucCON liver stage parasites in HepG2-A16-CD81EGFP cells; experiment: P. berghei liver stage Pb-Luc assay, Method 1 (UCSD, 1536-well); type: cell-based, Plasmodium berghei; details: P. berghei liver stage, averaged response (percent); for Average P. berghei 1 µM response (%): the header list (r8) defines it as the 1 µM dose
[3] = HepG2, the header list (r10) describes it as the 1 µM dose

SMILES | Pf ABS Log AC50 (M) [1] | Average HepG2 3 µM response( %) (HepG2-A16-CD81EGFP cells; HepG2, 3 µM dose) | Average HepG2 3 µM response( %) (HepG2-A16-CD81EGFP cells; [3]) | viability at 3 µM (in vitro) | Average P. berghei 3 µM response( %) [2] | Average P. berghei 1 µM response (%) [2]
CCOc1ccc(-n2c(SCC(=O)OC)nc3sc4c(c3c2=O)CCN(C)C4)cc1 [MLS001213437] | -5.950 M | 103% | 112% | 103% | 102% | 88%
NS(=O)(=O)c1ccc(N/N=C/c2cn(-c3ccccc3)nc2-c2cccs2)cc1 [MLS000393371] | -6.762 M | 94% | 91% | 94.1% | 24% | 69%
Cc1ccc(O)c(-c2cc(C(=O)Nc3ccc([S+](=O)([O-])N4CC(C)OC(C)C4)cc3)n[nH]2)c1 (stereo not drawn) [NCGC00071593] | -6.150 M | 97% | 100% | 97% | 65% | 89%
CN(C(Cc1ccc(O[S+](=O)([O-])c2cccc3cnccc23)cc1)C(=O)N1CCN(c2ccccc2)CC1)[S+](=O)([O-])c1cccc2cnccc12 (stereo not drawn) [NCGC00163381] | -6.300 M | 79% | 87% | 79.2% | 77% | 
Cc1cc(Nc2ccc(C)c(C)c2)n2nc(C)nc2n1 [MLS000116616] | -5.712 M | 90% | 91% | 90.3% | 39% | 76%
O=C(CCl)Nc1ccc(Oc2cnc3ccccc3n2)cc1 [MLS000327546] | -5.812 M | 91% | 88% | 90.9% | 121% | 109%
N=c1c2c(n(Cc3ccc(F)cc3)c3c1CCC3)CCC2 [MLS000107591] | -5.862 M | 78% | 100% | 77.7% | 16% | 68%
N#Cc1c(N2CCN(c3ccc(F)cc3)CC2)nc(N)c2c(N)nc3c(c12)CC(=O)N3C1CC1 [MLS001003889] | -6.262 M | 90% | 102% | 89.7% | 50% | 101%
COc1ccc(C2c3[nH]c4ccccc4c3C[C@H]3C(=O)N(C4CCN(Cc5ccccc5)CC4)CC(=O)N23)cc1OC (stereo partly drawn) [MLS001215281] | -5.612 M | 90% | 101% | 90.3% | 73% | 94%
Cl.Oc1ccc(C2NCc3ccccc3-n3cccc32)cc1Cl (stereo not drawn) [MLS000047999] | -5.962 M | 94% | 100% | 94% | 90% | 101%
Cn1nc(C(F)(F)F)c(-c2ccc(F)cc2)c1NC(=O)Nc1ccc(F)cc1 [MLS000830769] | -5.962 M | 99% | 95% | 99% | 90% | 148%
CCN(CC)CCN1C(=O)c2ccccc2NC1c1ccc(N(C)C)cc1 (stereo not drawn) [MLS000554078] | -5.612 M | 96% | 103% | 95.7% | 84% | 102%
COc1ccc(-c2c[n+](-c3ccccc3)c3n2CCS3)cc1 [MLS000587970] | -5.712 M | 88% | 97% | 88.3% | 31% | 92%
CCc1ccccc1OC[C@@H](O)CN[C@@H]1CCCc2ccccc21 [NCGC00025196] | -5.800 M | 92% | 95% | 91.7% | 77% | 73%
COc1cc(C)cc(CN2CCC(Cc3ccccc3)CC2)c1O [MLS001178265] | -6.137 M | 88% | 97% | 87.6% | 102% | 89%
CCN(CC)Cc1cc2[nH]c3c4ccc(Cl)cc4ncc3c2cc1OC [MLS000757007] | -6.700 M | 101% | 105% | 101% | 134% | 108%
O=C(Nc1ccc(Nc2ccncc2)cc1)c1ccc(Nc2ccnc3ccc([N+](=O)[O-])cc23)cc1 [MLS000766132] | -6.337 M | 90% | 92% | 90.3% | 96% | 114%
NC1=NC[C@@H](Cc2ccc(O)cc2)N1CCCCC1CCCCC1 [MLS000888822] | -5.487 M | 98% | 113% | 97.6% | 40% | 86%
COc1ccc(Nc2cc(C)c3ccc(O)cc3n2)cc1 [MLS000674789] | -6.187 M | 96% | 88% | 96.2% | 118% | 103%
O=C(Nc1ccc(-c2csc(Nc3cccc(C(F)(F)F)c3)n2)cc1)c1cc([N+](=O)[O-])cc(C(F)(F)F)c1 [MLS000911524] | -5.387 M | 101% | 101% | 101% | 73% | 100%
Cc1cc(C)c(-c2csc(NC(=O)CCCc3nc4ccccc4c(=O)[nH]3)n2)c(C)c1 [MLS001156669] | -5.900 M | 103% | 99% | 103% | 12% | 72%
COc1cccc(CNCC(O)(c2ccc(Cl)cc2)c2ccc(Cl)cc2)c1 [MLS000325699] | -5.812 M | 101% | 105% |  | 98% | 112%
Cc1cc(Oc2c(C(F)(F)F)oc3c(CN4CCC(C)CC4)c(O)ccc3c2=O)cc(C)c1Cl [NCGC00101140] | -6.125 M | 111% | 110% |  | 71% | 85%
